Patent EP4417602A1, “SUBSTITUTED PYRAZOLE CARBOXAMIDES, SALTS THEREOF AND THEIR USE AS HERBICIDALLY ACTIVE SUBSTANCES” (Bayer AG, priority 2023, dated 2024)

Assays:
ECHCG = test: E. Herbicidal post-emergence action, weed and crop plants (Tables E); type: in vivo, Echinochloa crus-galli; settings: application rate 320 g/ha, visual assessment after ca. 3 weeks
From the text: (§1) Seeds of mono- and dicotyledonous weed plants and crop plants were sown, in plastic or organic planting pots, in sandy loam, covered with soil and grown in a greenhouse under controlled growth conditions. 2 to 3 weeks after sowing, the test plants were sprayed in the single-leaf stage. The compounds according to the invention, formulated in form of wettable powders (WP) or as emulsifiable concentrates (EC), were sprayed onto the green plant parts as aqueous suspension or emulsion, with the addition of 0.5% of an additive, at an application rate of 6001 of water/ha (converted). The test plants were placed in the greenhouse for ca. 3 weeks under optimum growth conditions, and then the effect of the preparations was assessed visually in comparison with untreated controls (herbicidal effect in percent (%): 100% effect = plants have died off, 0% effect = as control plants). Tables E1 to E7 below show the effects of selected compounds of the general formula (I) according to table 1 on various harmful plants and an application rate corresponding to 320 g/ha or below obtained by the experimental procedure mentioned above. Table E1: post-emergence activity at 320g/ha against ALOMY in %

ORYZA = test: F. Post-emergence effects on crop plants (Tables F); type: in vivo, Oryza sativa; settings: crop plant
From the text: as §1, with “F1” for “E1”, “F5” for “E7”, “crop” for “harmful”, “[…]:” for “E1:”, “ZEAMX” for “ALOMY”

ALOMY = test: E. Herbicidal post-emergence action, weed and crop plants (Tables E); type: in vivo, Alopecurus myosuroides; settings: application rate 320 g/ha, visual assessment after ca. 3 weeks
From the text: as §1

ZEAMX = test: D. Pre-emergence effects on crop plants (Tables D); type: in vivo, Zea mays; settings: crop plant
Summary of the method: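 Pre-emergence soil-surface treatment at 320 g/ha or lower, using wettable-powder or emulsifiable-concentrate formulations in water plus 0.5% additive, over freshly sown seeds in covered sandy loam. Damage was rated visually as percent versus untreated pots (100% = dead plants) after about 3 weeks of greenhouse growth.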

TRZAS = test: D. Pre-emergence effects on crop plants (Tables D); type: in vivo, Triticum aestivum; settings: crop plant
From the text: Seeds of mono- and dicotyledonous weed plants and crop plants were sown, in plastic or organic planting pots, in sandy loam and covered with soil. The compounds according to the invention, formulated in the form of wettable powders (WP) or as emulsifiable concentrates (EC), were applied to the surface of the covering soil as aqueous suspension or emulsion, with the addition of 0.5% of an additive, at an application rate of 6001 of water/ha (converted).
Following treatment, the pots were placed in a greenhouse and kept under optimum growth conditions for the test plants. The visual grading of the damage to the test plants was carried out after ca. 3 weeks in comparison to untreated controls (herbicidal effect in percent (%): 100% effect = plants have died off, 0% effect = as control plants).
Tables D1 to D5 below show the effects of various compounds of the general formula (I) according to Table 1 on various crop plants and an application rate corresponding to 320 g/ha or below obtained by the experimental procedure mentioned above in Biological Examples, Section C. Table D1a: pre-emergence activity at 320g/ha against ZEAMX in %

AMARE [1] = test: A. Herbicidal pre-emergence action on harmful plants (Tables A); type: in vivo, Amaranthus retroflexus
Summary of the method: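 Greenhouse pre-emergence test: compound applied to the soil surface at 1280 g/ha or below, and herbicidal effect rated visually at ca. 3 weeks on a 0–100% scale against untreated plants.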

VERPE = test: C. Herbicidal pre-emergence action, weed and crop plants (Tables C); type: in vivo, Veronica persica; settings: application rate 320 g/ha; Table C11
From the text: (§2) Seeds of mono- and dicotyledonous weed plants and crop plants were sown, in plastic or organic planting pots, in sandy loam and covered with soil. The compounds according to the invention, formulated in the form of wettable powders (WP) or as emulsifiable concentrates (EC), were applied to the surface of the covering soil as aqueous suspension or emulsion, with the addition of 0.5% of an additive, at an application rate of 6001 of water/ha (converted). Following treatment, the pots were placed in a greenhouse and kept under optimum growth conditions for the test plants. The visual grading of the damage to the test plants was carried out after ca. 3 weeks in comparison to untreated controls (herbicidal effect in percent (%): 100% effect = plants have died off, 0% effect = as control plants). Tables C1 to C12 below show the effects of selected compounds of the general formula (I) according to table 1 on various harmful plants and an application rate corresponding to 320 g/ha or below obtained by the experimental procedure mentioned above. Table C1: pre-emergence activity at 320g/ha against KCHSC in %

AMARE [2] = test: as above; type: in vivo, Amaranthus retroflexus; settings: application rate 320 g/ha; Table C3
From the text: as §2

[3] = application rate 80 g/ha, Table D1b
[4] = application rate 80 g/ha, Table D2b
[5] = application rate 1280 g/ha, visual grading after ca. 3 weeks vs untreated controls, 100% = plants have died off, 0% = as control plants
[6] = application rate 320 g/ha, Table A8b

SMILES | post-emergence activity against ORYZA in % (ORYZA; application rate 80 g/ha) [%] | post-emergence activity against ALOMY in % (ALOMY) [%] | pre-emergence activity against ZEAMX (ZEAMX; [3]) [%] | pre-emergence activity against VERPE (VERPE) [%] | further results
COCc1nn(C)cc1C(=O)N1CCCC1Cc1ccccc1F (racemic) [Example I-002] |  |  |  |  | post-emergence activity against ECHCG in % (ECHCG): 80%
Cn1cc(C(=O)N2CCCC2Cc2ccccc2F)c(COc2ccccc2)n1 (racemic) [Example I-006] | 0 | 90 | 0 |  | post-emergence activity against ORYZA in % (ORYZA; application rate 320 g/ha): 0%; pre-emergence activity against TRZAS (TRZAS; [4]): 0%; pre-emergence activity against TRZAS (TRZAS; application rate 320 g/ha, Table D2a): 20%
Cn1cc(C(=O)N2CCCC2Cc2ccc(F)cc2F)c(COc2ccccc2)n1 (racemic) [Example I-008] | 0 |  | 10 |  | post-emergence activity against ORYZA in % (ORYZA; application rate 320 g/ha): 0%; pre-emergence activity against ZEAMX (ZEAMX; application rate 320 g/ha, Table D1a): 20%; pre-emergence activity against TRZAS (TRZAS; [4]): 10%
COCc1nn2c(c1C(=O)N1CCCC1Cc1ccccc1F)CCC2 (racemic) [Example I-022] |  |  | 0 |  | pre-emergence activity against TRZAS (TRZAS; [4]): 0%
C=C(c1ccccc1F)C1CCCN1C(=O)c1cn(C)nc1COC (racemic) [Example I-023] |  |  | 0 |  | pre-emergence activity against AMARE (AMARE [1]; [5]): 90%
COCc1nn(C(=O)OC(C)(C)C)cc1C(=O)N1CCCC1Cc1ccccc1F (racemic) [Example I-040] |  |  | 20 |  | 
CNC(=O)n1cc(C(=O)N2CCCC2Cc2ccccc2F)c(COC)n1 (racemic) [Example I-051] |  | 80 |  |  | 
COCc1c(C(=O)N2CCCC2Cc2ccccc2Cl)cnn1C (racemic) [Example I-170] | 0 | 80 |  | 80 | post-emergence activity against ECHCG in % (ECHCG): 80%
COCc1nn(C)cc1C(=O)N1CCCC1Cc1ccccc1F (single isomer, unassigned) [Example I-003] | 0 | 80 |  | 80 | post-emergence activity against ECHCG in % (ECHCG): 80%; pre-emergence activity against AMARE (AMARE [2]): 90%; pre-emergence activity against AMARE (AMARE [1]; [6]): 90%; pre-emergence activity against AMARE (AMARE [1]; [5]): 90%
COCc1nn(C)cc1C(=O)N1CCCC1C(O)c1ccccc1F (single isomer, unassigned) [Example I-053] |  |  |  | 80 | pre-emergence activity against AMARE (AMARE [2]): 90%
COCc1c(C(=O)N2CCCC2Cc2ccccc2F)cnn1C (single isomer, unassigned) [Example I-157] | 10 | 80 |  | 80 | pre-emergence activity against AMARE (AMARE [1]; [6]): 90%; pre-emergence activity against AMARE (AMARE [1]; [5]): 90%
